Patent US5290553A, “Alkaloids of picralima nitida used for treatment of protozoal diseases” (The United States of America as represented by the …, priority 1991, dated 1994)
Converted amounts (≈) assume the structure as drawn. Like-named read-outs stand apart in the source and are kept apart here.

Legend:
[1] = tested on: Plasmodium falciparum D-6 clone (Sierra Leone); assay: In vitro antimalarial assay, D-6 clone (tritiated hypoxanthine uptake); type: cell-based; conditions: for IC50: Plasmodium falciparum, read-out: IC50, D-6 Clone
Method: (§1) The in vitro assays were performed by using a modification of the semi-automated microdilution technique described earlier in Desjardins et al.^29 and Milhous et al.^30 Two P. falciparum malaria parasite clones, designated as Indochina (W-2) and Sierra Leone (D-6), were utilized in susceptibility testing. The W-2 clone is resistant to chloroquine, pyrimethamine, sulfadoxine, and quinine, and the other clone is resistant to mefloquine. The test extracts were dissolved in dimethylsulfoxide (DMSO) and serially diluted with media. The uptake of tritiated hypoxanthine was used as an index of inhibition of parasite growth.
(§2) Two P. falciparum malaria parasite clones, designated as Indochina (W-2) and Sierra Leone (D-6), were utilized in susceptibility testing. The W-2 clone is resistant to chloroquine, pyrimethamine, sulfadoxine, and quinine, and the other clone is resistant to mafloquine.
(§3) The test extracts were dissolved in DMSO and serially diluted with media. The uptake of tritiated hypoxanthine was used an an index of inhibition of parasite growth.

[2] = tested on: Plasmodium falciparum W-2 clone (Indochina); assay: In vitro antimalarial assay, W-2 clone (tritiated hypoxanthine uptake); type: cell-based; conditions: for IC50: Plasmodium falciparum, read-out: IC50, W-2 Clone
Method: as §1, §2, §3

[3] = tested on: Trypanosoma brucei brucei; assay: In vivo antitrypanosomial activity, mouse; conditions: 7 mg i.p.
[4] = tested on: Trypanosoma brucei brucei; assay: In vivo antitrypanosomial activity, rat; conditions: 7 mg i.p.
[5] = tested on: W-2 and D-6 clones of Plasmodium falciparum; assay: In vitro antimalarial assay, statements on both clones; type: cell-based; conditions: P. falciparum clones
Method: as §1
The in vitro assays were performed by using a modification of the semi-automated microdilution technique described earlier (Desjardins et al., 1979; Milhous et al., 1985). Two P. falciparum malaria parasite clones, designated as Indochina (W-2) and Sierra Leone (D-6), were utilized in susceptibility testing. The W-2 clone is resistant to chloroquine, pyrimethamine, sulfadoxine, and quinine, and the other clone is resistant to mafloquine.
as §3

avian malaria = conditions: in vivo; cited from earlier work
malaria = conditions: in vivo; cited from earlier work
[6] = relative to cocaine; cited from earlier work
[7] = tested on: Leishmania (Leishmania) chagasi MHOM/BR/84/BA-13; conditions: previously determined; cited from earlier work
[8] = tested on: Leishmania (Leishmania) chagasi promastigotes (MHOM/BR/84/BA-13); assay: Growth inhibition of leishmania promastigotes over 96 hours; type: cell-based
Method: A clinical isolate of visceral Leishmania (Leishmania) chagasi, MHOM/BR/84/BA-13, was used for this study. This isolate was selected because sensitivity to SbV was previously determined using RAM. MHOM/BR/84/BA-13 is sensitive to Pentostam (sodium antimony gluconate) at 6 μg/ml Sb (20 μg/ml drug); and to Glucantime (N-methyl-glucamine antimoniate) at 80 μg/ml Sb (286 μg/ml drug)
Promastigotes of L. chagasi were grown in a serum-free, defined medium, MM2^43. The MM2 medium contained 120 μg/ml protein (10 μg/ml human transferrin, 10 μg/ml human insulin, 100 μg/ml defatted bovine albumin), plus 10 μg/ml low density bovine lipoprotein. […] Cultures were maintained at 25° C. during growth and incubation with drug.
Promastigotes were maintained in log phase growth for 3 successive transfers (48-72 hours apart) prior to radiorespirometric testing. Test extracts (or PBSS plus drug solvent [DMSO], for parallel control cultures) was added 24 hours after the third promastigote transfer to fresh growth medium. Incubation in the presence of plant extracts was continued for 96 additional hours while the parasites remained in mid-log phase growth. The rest of the radiorespirometric procedure was conducted as previously described^45.

opiate receptor = conditions: from cell suspension culture of P. nitida; cited from earlier work
[9] = Table 5, alkaloids and reference drugs

Compound: CC[C@H]1[C@@H]2C[C@H]3[C@@H]4N(C)c5ccccc5[C@]45C[C@@H]([C@@H]2[C@H]5O)N3[C@@H]1O [Ajmaline, reference compound]
- IC50 [1, 9]: 4.7 µg/mL (≈ 14.4 µM)
- IC50 [2, 9]: 1.24 µg/mL (≈ 3.8 µM)

Compound: N=C(N)c1ccc(N=NNc2ccc(C(=N)N)cc2)cc1 [Berenil]
- Day of 0% Parasite Count [3]: 6 days
- Day of 0% Parasite Count [4]: 8 days

Compound: C/C=C1/C[N@+]2(C)CC[C@@]34c5ccccc5N[C@]32[C@@H](O)C[C@@H]1[C@@]4(CO)C(=O)OC [Echitamine, reference compound]
- IC50, D-6 Clone [1, 9]: 4.68 µg/mL
- IC50, W-2 Clone [2, 9]: 7.25 µg/mL
- antimalarial activity in vitro [5]: no activity

Compound: C/C=C1/CN2CC[C@@]34c5cc(O)ccc5N(C)[C@]35OC[C@@]4(C(=O)OC)[C@@H]1C[C@H]25 [Akuammine]
- IC50 [1, 9]: 0.95 µg/mL (≈ 2.48 µM)
- activity against avian malaria (avian malaria): inactive against avian malaria
- activity in clinical trials (malaria): inactive
- local anesthetic action [6]: local anesthetic action comparable to that of cocaine
- IC50 [2, 9]: 0.66 µg/mL (≈ 1.73 µM)

Compound: N-methyl-glucamine antimoniate [Glucantime]
- concentration at which isolate is sensitive, as Sb [7]: 80 μg/ml Sb
- concentration at which isolate is sensitive, as drug [7]: 286 μg/ml drug

Compound: CC=C1CN2C3CC45c6ccccc6NC4(O3)C2CC1C5(COC(C)=O)C(=O)OC (stereo not shown) [Picraline]
- IC50 [1, 9]: 0.78 µg/mL (≈ 1.9 µM)
- IC50 [2, 9]: 0.53 µg/mL (≈ 1.29 µM)

Compound: sodium antimony gluconate [Pentostam]
- concentration at which isolate is sensitive, as Sb [7]: 6 μg/ml Sb
- concentration at which isolate is sensitive, as drug [7]: 20 μg/ml drug

Compound: CC=C1CN2C3CC1C(CO)C2Cc1c3[nH]c2ccccc12 (stereo not shown) [PNF-S7]
- IC50 [1, 9]: 7.6 µg/mL (≈ 25.8 µM)
- IC50 [2, 9]: 10.6 µg/mL (≈ 36 µM)

Compound: COC(=O)C1=CO[C@@H](C)[C@@H]2CN3CCc4c([nH]c5ccccc45)C3C[C@H]12 (stereo partly shown) [Alstonine (tetrahydro-)]
- IC50 [1, 9]: 2.76 µg/mL (≈ 7.83 µM)
- IC50 [2, 9]: 2.86 µg/mL (≈ 8.11 µM)

Compound: C/C=C1/CN2[C@H]3C[C@H]1[C@@H](CO)[C@@H]2Cc1c3[nH]c2ccc(O)cc12 [Sarpagine, reference compound]
- IC50 [1, 9]: 16.6 µg/mL (≈ 53.6 µM)
- IC50 [2, 9]: 29.2 µg/mL (≈ 94 µM)

Compound: CC=C1CN2CCC34c5ccccc5N(C)C35OCC4(C(=O)OC)C1CC25 (stereo not shown) [.PSI.-Aukuammigine]
- IC50 [1]: 0.83 µg/mL (≈ 2.26 µM)
- IC50 [2]: 0.1 µg/mL (≈ 0.273 µM)

Compound: C[C@@H]1CC[C@H]2[C@@H](C)C(=O)O[C@@H]3O[C@@]4(C)CC[C@@H]1[C@]32OO4 [Artemisinin, reference compound]
- IC50 [1, 9]: 0.004 µg/mL (≈ 0.0142 µM)
- IC50 [2, 9]: 0.002 µg/mL (≈ 0.00708 µM)

Compound: C/C=C1/CN2CC[C@]34C(=C(C(=O)OC)[C@H]1C[C@H]23)Nc1ccccc14 [Akuammicine]
- IC50 [1, 9]: 0.45 µg/mL (≈ 1.4 µM)
- IC50 [2, 9]: 0.73 µg/mL (≈ 2.26 µM)

Compound: COC(=O)C1=CO[C@@H](C)[C@@H]2C[n+]3ccc4c([nH]c5ccccc54)c3C[C@H]12 [Alstonine]
- IC50 [1, 9]: 0.02 µg/mL
- IC50 [2, 9]: 0.09 µg/mL
- inhibition of leishmania promastigotes, ranking ([8]; alkaloids isolated from the active fraction): greatest inhibition
- concentration of the highest growth inhibition ([8]; leishmania promastigotes): 50 µg/mL
- growth inhibition, dose relation ([8]; leishmania promastigotes): dose related activity

Compound: C=C1c2[nH]c3ccccc3c2CCN2CC[C@@H]1/C(=C\C)C2 [pericine]
- CNS activity, opiate receptor binding (opiate receptor): CNS active

Compound: COC(=O)[C@@H]1[C@H]2C[C@H]3c4[nH]c5ccccc5c4CCN3C[C@@H]2CC[C@@H]1O [Yohimbine, reference compound]
- IC50 [1]: 7.51 µg/mL (≈ 21.2 µM)
- IC50 [2]: 6.16 µg/mL (≈ 17.4 µM)

Compound: CCN(CC)CCCC(C)Nc1ccnc2cc(Cl)ccc12 (stereo not shown) [Chloroquine, reference compound]
- IC50 [1]: 0.006 µg/mL (≈ 0.0188 µM)
- IC50 [2]: 0.04 µg/mL (≈ 0.125 µM)
